Laboratory results taken from the supplement of paper PMC10307832.

How the values were obtained:
Test in all cases: relative viability (nuclei count vs DMSO), 5 days (fraction); higher = more cells survive
Carboplatin + Luminespib = compound: C1CC(C1)(C(=O)O)C(=O)O.[NH2-].[NH2-].[Pt+2] [Carboplatin] + CCNC(=O)c1noc(-c2cc(C(C)C)c(O)cc2O)c1-c1ccc(CN2CCOCC2)cc1 [Luminespib] (partner 0.01 µM)
In short: (§1)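 Relative viability was taken as the ratio of nuclei in treated wells to nuclei in vehicle wells. Lung cancer cell lines in 1536-well plates received compounds by pin tool one day after seeding, either one drug alone or a fixed anchor-drug dose plus five library-drug doses (not always all listed) in √10 steps. Nuclei were counted on 4× images after 5 days of treatment, and values are medians of duplicate plates.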

Carboplatin + Lapatinib = compound: C1CC(C1)(C(=O)O)C(=O)O.[NH2-].[NH2-].[Pt+2] [Carboplatin] + CS(=O)(=O)CCNCc1ccc(-c2ccc3ncnc(Nc4ccc(OCc5cccc(F)c5)c(Cl)c4)c3c2)o1 [Lapatinib] (partner 2 µM)
In short: as §1

GSK126 + Navitoclax = compound: CC[C@H](C)N1C=C(C2=C(C=C(C=C21)C3=CN=C(C=C3)N4CCNCC4)C(=O)NCC5=C(C=C(NC5=O)C)C)C [GSK126] + CC1(C)CCC(c2ccc(Cl)cc2)=C(CN2CCN(c3ccc(C(=O)NS(=O)(=O)c4ccc(N[C@H](CCN5CCOCC5)CSc5ccccc5)c(S(=O)(=O)C(F)(F)F)c4)cc3)CC2)C1 [Navitoclax] (partner 0.5 µM)
In short: as §1

MLN4924 + OSI-027 = compound: NS(=O)(=O)OC[C@@H]1C[C@@H](n2ccc3c(N[C@H]4CCc5ccccc54)ncnc32)C[C@@H]1O [MLN4924] + COc1cccc2cc(-c3nc([C@H]4CC[C@H](C(=O)O)CC4)n4ncnc(N)c34)[nH]c12 [OSI-027] (partner 0.5 µM)
In short: as §1

Cell Line	relative viability (Carboplatin + Luminespib; first compound 0.08 µM)	relative viability (Carboplatin + Luminespib; first compound 0.253 µM)	relative viability (Carboplatin + Luminespib; first compound 0.8 µM)	relative viability (Carboplatin + Luminespib; first compound 2.53 µM)	relative viability (Carboplatin + Luminespib; first compound 8 µM)	relative viability (Carboplatin + Lapatinib; first compound 0.08 µM)	relative viability (Carboplatin + Lapatinib; first compound 0.253 µM)	relative viability (Carboplatin + Lapatinib; first compound 0.8 µM)	relative viability (Carboplatin + Lapatinib; first compound 2.53 µM)	relative viability (Carboplatin + Lapatinib; first compound 8 µM)	relative viability (GSK126 + Navitoclax; first compound 0.08 µM)	relative viability (GSK126 + Navitoclax; first compound 0.253 µM)	relative viability (GSK126 + Navitoclax; first compound 0.8 µM)	relative viability (GSK126 + Navitoclax; first compound 2.53 µM)	relative viability (GSK126 + Navitoclax; first compound 8 µM)	relative viability (MLN4924 + OSI-027; first compound 0.04 µM)	relative viability (MLN4924 + OSI-027; first compound 0.1265 µM)	relative viability (MLN4924 + OSI-027; first compound 0.4 µM)	relative viability (MLN4924 + OSI-027; first compound 1.265 µM)	relative viability (MLN4924 + OSI-027; first compound 4 µM)
PC-14	0.116	0.144	0.148	0.107	0.155	0.312	0.368	0.33	0.354	0.251	1.04	0.998	1.02	0.95	0.804	1.03	0.787	0.378	0.0583	0.065
HCC-15	0.434	0.302	0.177	0.306	0.42	0.919	0.854	0.875	0.814	0.66	0.719	0.662	0.658	0.676	0.623	0.347	0.197	0.139	0.0813	0.0848
NCI-H2347	0.573	0.421	0.368	0.432	0.352	1.02	0.926	0.918	0.949	0.888	1.03	0.679	0.688	0.799	0.772	0.39	0.375	0.354	0.214	0.29
LOU-NH91	0.393	0.337	0.329	0.306	0.34	0.84	0.755	0.838	0.819	0.735	0.732	0.656	0.68	0.751	0.706	0.754	0.857	0.609	0.411	0.385
LCLC-103H	0.918	1.09	0.859	0.908	0.905	–	–	–	–	–	–	–	–	–	–	0.467	0.491	0.539	0.178	0.156
EMC-BAC-2	1.22	1.15	1.15	1	0.751	0.883	0.886	0.924	0.837	0.88	1.09	1.18	1.14	1.18	1.23	0.383	0.36	0.197	0.194	0.243
NCI-H2228	0.179	0.136	0.115	0.158	0.132	1.61	0.939	1.01	0.868	0.616	0.55	1.01	1.1	0.863	0.837	0.611	0.683	0.148	0.141	0.14
HOP-62	0.957	0.876	0.819	0.799	0.719	0.98	1.07	1.09	1.02	0.812	1.01	1.06	1.06	0.916	0.979	0.73	0.565	0.337	0.0849	0.132
NCI-H727	0.377	0.3	0.432	0.24	0.312	0.998	0.782	0.85	0.745	0.448	0.444	0.354	0.51	0.408	0.361	0.521	0.47	0.559	0.389	0.441
COR-L 105	1.04	0.851	0.677	0.667	0.648	0.354	0.349	0.381	0.332	0.382	0.813	0.745	0.754	0.678	0.719	0.721	0.617	0.511	0.238	0.311
NCI-H358	0.359	0.77	0.259	0.409	0.222	0.483	0.474	0.538	0.485	0.543	–	–	–	–	–	0.968	0.649	0.492	0.0759	0.118
SK-MES-1	0.891	0.763	0.714	0.777	0.81	0.469	0.475	0.506	0.548	0.472	1.4	1.27	1.1	1.33	1.16	0.678	0.585	0.266	0.133	0.16
LC-2-ad	1.02	1.01	0.993	0.911	0.651	0.967	0.981	0.938	0.991	0.844	0.468	0.383	0.506	0.477	0.484	0.952	0.727	0.439	0.224	0.262
H3255	1.02	1.03	0.964	0.772	0.704	0.276	0.248	0.269	0.257	0.236	0.591	0.606	0.5	0.522	0.505	0.578	0.472	0.373	0.256	0.291
A-427	0.934	0.928	0.928	0.803	0.976	1.1	1.05	1.04	1.04	0.985	1.04	1	0.836	0.959	0.845	0.356	0.239	0.214	0.173	0.171
NCI-H661	0.892	0.901	0.854	0.874	0.744	0.649	0.511	0.331	0.369	0.459	–	–	–	–	–	0.751	0.876	0.689	0.319	0.349
